Our source for the IC50 values is patent US20240374581A1, “SALT TYPES OF TRICYCLIC TETRAHYDRO ISOQUINOLINE DERIVATIVE” (JIANGSU HENGRUI PHARMACEUTICALS CO., LTD., priority 2021, published 2024).

For one assay, the system named is MCF-7 cells. The experiment in a line: Inhibition of proliferation of MCF-7 cells (ATP method). It is filed as cell-based. The following applies: Homo sapiens, MCF7; 72 h, Cell Titer-Glo; read-out: IC50, inhibitory effect on proliferation of MCF-7 cells. As to the method: This experiment was intended to test the inhibitory effect of the compound disclosed herein on the proliferation of MCF-7 cells by using the ATP method, and to evaluate the in vitro activity of the compound according to the IC50 value.
MCF-7 cells (TCHu74, National Collection of Authenticated Cell Cultures) were seeded into a 96-well plate with an MEM (hyclone, SH30024.01B) medium containing 10% FBS (Gibco, 10099-141), 1% sodium pyruvate (sigma, S8636) and 1% non-essential amino acid (sigma, M7145) at a density of 4,000 cells/well and cultured at 37° C. with 5% CO2. 20 mM stock solution of the compound was prepared, serially diluted with 100% DMSO to a final concentration of 1000×, and then diluted 20-fold with a medium containing 2% FBS. After the cells were cultured for 24 h, the medium was removed. 90 μL of the medium containing 2% FBS and 10 μL of a drug were added to each well, and 10 μL of DMSO was added to the control group. The mixtures were well mixed by gentle shaking. The blank group contained only 100 μL of the medium containing 2% FBS. The cells were cultured in an incubator at 37° C. with 5% CO2 for 72 h, and then 50 μL of mixed Cell Titer-Glo (Promega, G7571) was added to each well. The mixtures were well mixed by shaking and let stand at room temperature for 10 min, and the chemiluminescence signal value was determined. […]
In general terms: Cellular ATP, detected with luciferase, serves as a proxy for viable cell number.

The subject of assay [1] is ERα Y537S mutant-expressing MCF7 cells. The experiment in a line: Inhibition of proliferation of ERα mutant-expressing MCF7 cells. It is filed as cell-based. The following applies: Homo sapiens, 144 h, read-out: IC50, inhibitory effect on the proliferation of ERα mutant-expressing MCF7 cells. An excerpt:
The mutant estrogen receptor α (ERα) Y537S of human ERα protein was obtained by site-directed mutagenesis in a two-primer PCR manner using the cDNA of wild-type ESR1 gene (Accession No. NM000125) as a template. The sequences of the primers used in the mutation are as follows (the underlined nucleotides are the sites of mutation): Y537S: F-AAGAACGTGGTGCCCCTCTCTGACCTGCTGCTGGAGATG (SEQ ID NO: 1); R-CATCTCCAGCAGCAGGTCAGAGAGGGGCACCACGTTCTT (SEQ ID NO: 2). The cDNA of the mutant ESR1 was cloned into the lentiviral vector of interest pCDH-CMV-MCS-EF1-Puro. The lentiviral plasmid bearing the mutant ESR1 gene sequence and the lentiviral packaging plasmid were then transfected into HEK-293T cells (ATCC, CRL-3216) by using Lipofectamine 3000 Transfection Reagent (ThermoFisher Scientific, Cat #L3000075). […]
The ERα mutant-expressing MCF7 cells were cultured in an MEM (GE Healthcare, SH30024.01) complete medium containing 10% fetal bovine serum. […] The plate was let stand at room temperature for 10 min, and the luminescence signal value was read using a multilabel microplate reader (PerkinElmer, VICTOR 3). The IC50 value for the inhibitory activity of the compound was calculated according to the compound concentration and the luminescence signal value and is shown in Table 3.

On to `[2H]C1([2H])Oc2cc3c(cc2O1)[C@@H](c1ccc(NC2CN(CCCF)C2)cn1)N(CC(F)(F)CO)[C@H](C)C3` [Compound 1, 2,2-Difluoro-3-((5S,7R)-5-(5-((1-(3-fluoropropyl)azetidin-3-yl)amino)pyridin-2-yl)-7-methyl-7,8-dihydro-[1,3]dioxolo[4,5-g]isoquinolin-6(5H)-yl-2,2-d2)propan-1-ol], for which the IC50 in the assay with MCF-7 cells stood at 0.29 nM; in assay [1], 1.36 nM.
